MIC, IC50 and LC30 data for two compounds are collected here from ChEMBL document CHEMBL1208728, “Design, synthesis, and structure-activity relationships of pyrazole derivatives as potential FabH inhibitors” (Bioorg Med Chem Lett, 2010).

For one series, the system named is Bacillus subtilis. The series can be described thus: Antimicrobial activity against Bacillus subtilis ATCC 6633 by MTT assay. In kind it is functional. For orientation: Tetrazolium assays rely on reduction of a dye to a coloured formazan, in cell work by metabolically active cells.
Another series deals with Staphylococcus aureus. Put plainly: Antimicrobial activity against Staphylococcus aureus ATCC 6538 by MTT assay. In kind it is functional.
The subject of another series is Enterococcus faecalis. The series can be described thus: Antimicrobial activity against Streptococcus faecalis ATCC 9790 by MTT assay. It counts as functional.
Another series has as its system Pseudomonas aeruginosa. Put plainly: Antimicrobial activity against Pseudomonas aeruginosa ATCC 13525 by MTT assay. It counts as functional.
A further series concerns Escherichia coli. The series can be described thus: Antimicrobial activity against Escherichia coli ATCC 35218 by MTT assay. In kind it is functional.
Another series relates to Enterobacter cloacae. The series can be described thus: Antimicrobial activity against Enterobacter cloacae ATCC 13047 by MTT assay. In kind it is functional.
The target in series [1] is T1, 3-oxoacyl-[acyl-carrier-protein] synthase 3 (Escherichia coli, UniProt C3TDZ2).
T1 sequence (C3TDZ2 whole entry): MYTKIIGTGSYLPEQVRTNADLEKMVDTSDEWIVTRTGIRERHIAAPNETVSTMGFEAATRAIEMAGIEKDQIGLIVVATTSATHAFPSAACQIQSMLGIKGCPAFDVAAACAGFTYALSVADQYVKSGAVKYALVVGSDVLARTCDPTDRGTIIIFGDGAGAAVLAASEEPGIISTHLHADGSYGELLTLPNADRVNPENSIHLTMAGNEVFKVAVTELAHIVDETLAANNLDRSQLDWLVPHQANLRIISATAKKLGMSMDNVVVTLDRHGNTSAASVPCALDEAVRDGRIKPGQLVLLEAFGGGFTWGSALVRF
The series can be described thus: Inhibition of Escherichia coli FabH.

Series [2] can be described thus: Toxicity against RBC assessed as hemolysis. It counts as cell-based. The conditions noted are these: erythrocyte.

Each structure is given as a SMILES string. In brackets after ≈: the same amount, converted by molar mass. Bounds are passed on as bounds.

For orientation: MIC means the lowest concentration that inhibits growth of the organism. The low end stands for a more susceptible organism, the high end for a less susceptible organism. What is called IC50 is the concentration that gives 50% inhibition. Turning to `COc1ccc(C2=NN(C(C)=O)C(c3ccccc3Cl)C2)cc1` (stereo unspecified), the MIC is 25 µg/mL (≈ 76 µM) with Bacillus subtilis; greater than 50 µg/mL against Staphylococcus aureus; 12.5 µg/mL (≈ 38 µM) against Enterococcus faecalis; greater than 50 µg/mL against Pseudomonas aeruginosa; 6.25 µg/mL (≈ 19 µM) against Escherichia coli; 6.25 µg/mL (≈ 19 µM) against Enterobacter cloacae. This compound also gave a half-inhibitory concentration (IC50) in series [1] of 31.4 µM. Also, the LC30 in series [2] was greater than 10000 µg/mL.

For `COc1ccc(C2=NN(C(C)=O)C(c3ccc(C)cc3)C2)cc1` (stereo unspecified), the minimal inhibitory concentration (MIC) in the series on Bacillus subtilis is 25 µg/mL (≈ 81.1 µM); with Staphylococcus aureus it was 6.25 µg/mL (≈ 20.3 µM); against Enterococcus faecalis, 25 µg/mL (≈ 81.1 µM); against Pseudomonas aeruginosa it was 12.5 µg/mL (≈ 40.5 µM); in the series with Escherichia coli, 6.25 µg/mL (≈ 20.3 µM); against Enterobacter cloacae, 3.12 µg/mL (≈ 10.1 µM). This compound came in with an IC50 in series [1] of 17.3 µM. Moreover, the LC30 in series [2] was greater than 10000 µg/mL.
